Assay results as given in BindingDB's records for doi:10.1021/jm8008629 (Wayne State University, 2008).

Experiments:
D(2) dopamine receptor = D(2) dopamine receptor (Rattus norvegicus, UniProt P61169); assay: Displacement of [3H]Spiperone from rat dopamine D2L receptor expressed in HEK293 cells
D(3) dopamine receptor = D(3) dopamine receptor (Rattus norvegicus, UniProt P19020); assay: Displacement of [3H]Spiperone from rat dopamine D3 receptor expressed in HEK293 cells
Sequence of D(3) dopamine receptor (P19020 whole entry): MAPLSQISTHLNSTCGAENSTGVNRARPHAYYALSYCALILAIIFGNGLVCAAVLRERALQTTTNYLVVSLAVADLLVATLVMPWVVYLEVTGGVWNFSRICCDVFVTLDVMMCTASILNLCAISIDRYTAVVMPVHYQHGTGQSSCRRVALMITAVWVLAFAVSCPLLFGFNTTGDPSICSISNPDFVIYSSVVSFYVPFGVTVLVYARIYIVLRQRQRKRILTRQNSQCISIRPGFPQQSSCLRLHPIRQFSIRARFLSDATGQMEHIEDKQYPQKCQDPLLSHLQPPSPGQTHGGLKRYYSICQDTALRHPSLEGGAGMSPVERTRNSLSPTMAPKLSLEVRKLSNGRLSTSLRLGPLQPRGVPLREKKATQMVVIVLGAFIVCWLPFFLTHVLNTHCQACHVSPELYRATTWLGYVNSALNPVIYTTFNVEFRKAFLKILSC

Sequence of D(2) dopamine receptor (P61169 whole entry): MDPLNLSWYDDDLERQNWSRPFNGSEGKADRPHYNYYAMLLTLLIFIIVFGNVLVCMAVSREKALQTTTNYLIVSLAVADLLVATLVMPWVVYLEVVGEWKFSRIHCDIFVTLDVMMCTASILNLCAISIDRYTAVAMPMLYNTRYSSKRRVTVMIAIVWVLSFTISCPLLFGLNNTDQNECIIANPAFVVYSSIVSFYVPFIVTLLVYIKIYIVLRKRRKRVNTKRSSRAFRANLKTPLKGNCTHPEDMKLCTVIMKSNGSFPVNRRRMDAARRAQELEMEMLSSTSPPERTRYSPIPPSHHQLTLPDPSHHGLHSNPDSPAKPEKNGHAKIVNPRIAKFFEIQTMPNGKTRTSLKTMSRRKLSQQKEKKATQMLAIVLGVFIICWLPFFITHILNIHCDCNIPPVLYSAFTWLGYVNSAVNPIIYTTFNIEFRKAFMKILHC

Ki (D(2) dopamine receptor): 3330 nM
Ki (D(3) dopamine receptor): 419 nM
Compound: Oc1ccc2c(c1)C[C@@H]1[C@@H](CCCN1CCN1CCN(c3ccccc3)CC1)C2 (racemic) [(+/-)-cis-1-[2-(4-Phenylpiperazin-1-yl)ethyl]-1,2,3,4,4a,5,10,10a-octahydrobenzo[g]quinolin-8-ol]
